Common to all, as to test: NCI-60 cell line screen, 48 h
Test [1] concerns DU-145 prostate.
Test [2] relates to HS 578T breast.
Test [3] concerns BT-549 breast.
Test [4] deals with HCC-2998 colon.

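Cultured in 96-well plates, cells were exposed to test compound for 48 hours across five concentrations. Here, GI50 denotes the concentration required for 50% inhibition of growth. The concentration for full growth arrest is given as TGI.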 Bounds are passed on as bounds.

Turning to `NC(N)=NCCCCCNc1noc(Cc2c[nH]c3cc(Br)ccc23)n1`, the GI50 in test [1] is 20.4 µM; in test [2], 9.08 µM; in test [3], 3.35 µM; in test [4] it was 6.12 µM. Also, the TGI in test [1] is over 100 µM; in test [2], 90.2 µM; in test [3], 14.9 µM; in test [4], 23.2 µM.

As for `COCCOc1cnc2ccn([C@H](C)c3nnc4c(F)cc(-c5cnn(C)c5)cn34)c(=O)c2c1`, the GI50 in test [1] is over 100 µM; in test [2] it was 82.7 µM; in test [3] it was over 100 µM; in test [4] it was over 100 µM. Besides, the TGI in test [1], in test [2], in test [3] and in test [4] was over 100 µM each time.

On to `COc1cc2ncn(-c3cc(OCCc4ccccc4)c(C(N)=O)s3)c2cc1OC`, for which the GI50 is over 23.2 µM in test [1], over 16.1 µM in test [2], over 25 µM in test [3] and over 25 µM in test [4]. Also, the TGI in test [1], in test [2], in test [3] and in test [4] was over 25 µM throughout.

Consider `COc1ccc2c(O)cc3c(c2c1)[C@H](CCl)CN3C(=O)c1cc2cc(NC(=O)CCN3CCOCC3)ccc2[se]1`, for which the figures for the GI50 in test [1], in test [3] and in test [4] were under 0.001 µM, 0.00104 µM and under 0.001 µM, respectively. In addition, the TGI in test [1] stood at 0.137 µM; in test [3], 0.00649 µM; in test [4], 0.00715 µM.

Turning to `Cc1cc(C2CC(O)C(CO)O2)cc2c(=O)[nH]c(N)nc12` (configuration not stated), the GI50 in test [1], in test [2], in test [3] and in test [4] was over 100 µM each time. The TGI in test [1], in test [2], in test [3] and in test [4] was over 100 µM in each case.

With `Cc1cc2c(cc1Cl)SC(=Nc1ccc(Cl)cc1)N(S(=O)(=O)c1ccccc1)S2(=O)=O`, the GI50 in test [1] was 12.6 µM; in test [2], 20.7 µM; in test [3] it was 11.1 µM. Besides, the values for the TGI in test [1], in test [2] and in test [3] were 25.1 µM, 45.9 µM and 24.5 µM, respectively.

For the molecule `O=C(CSC(c1ccccc1)c1ccccc1)N/N=C/c1ccc(Cl)cc1Cl`, the GI50 is 32.9 µM in test [1], 34.8 µM in test [2], 30 µM in test [3] and 26.9 µM in test [4]. Besides, the TGI in test [1] was 93.5 µM; in test [2], over 100 µM; in test [3] it was 75.8 µM; in test [4], 71 µM.

For `Cn1cc(C2=C(c3cn(CCCCCN)c4ccccc34)C(=O)NC2=O)c2ccccc21`, the GI50 in test [1] was 13.8 µM; in test [2], 11.5 µM; in test [3], 8.62 µM; in test [4], over 25 µM. The TGI in test [1] is over 25 µM; in test [2] it was over 25 µM; in test [3] it was 24.3 µM; in test [4], over 25 µM.

In the case of `CCc1ccccc1NC(=O)c1sc2nc3c(cc2c1N)C(=O)CCC3`, the GI50 in test [1] is 0.589 µM; in test [2] it was 0.398 µM; in test [3] it was 27.4 µM; in test [4], 1.67 µM. The TGI in test [1], in test [2], in test [3] and in test [4] was over 100 µM each time.

In the case of `O=C(Nc1ccc(-n2cc(-c3ccncc3)c(-c3ccc(Cl)c(O)c3)n2)cc1)Nc1ccc(Cl)c(C(F)(F)F)c1`, the GI50 in test [1] was 1.84 µM; in test [2] it was 1.39 µM; in test [3] it was 1.2 µM; in test [4], 1.78 µM. For the same molecule, the TGI in test [1] was 3.85 µM; in test [2], 4.43 µM; in test [3], 2.79 µM; in test [4], 3.25 µM.

Consider `COc1ccc(Nc2c3ccccc3nc3occ(Cl)c23)cc1`, for which the GI50 in test [1] is 0.0874 µM; in test [2] it was 0.0237 µM; in test [3], 2.05 µM; in test [4] it was under 0.01 µM. Further, the TGI in test [1] is 22 µM; in test [2], 61.3 µM; in test [3], 26.2 µM; in test [4], 0.0909 µM.

As to `COc1ccc2ncn(-c3cc(O[C@H](C)c4ccccc4Cl)c(C(N)=O)s3)c2c1`, the GI50 is 0.0763 µM in test [2], 0.448 µM in test [3] and 0.0348 µM in test [4]. For the same molecule, the TGI is 1.26 µM in test [2], 13.3 µM in test [3] and 5.51 µM in test [4].

For `CN(CCCNC(=O)Cc1ccc2ccc3cccc4ccc1c2c34)CCCNc1cc(-c2ccc3ccccc3c2)nc2ccccc12`, the results for the GI50 in test [1], in test [2] and in test [4] were 1.55 µM, 1.66 µM and 1.48 µM, respectively. Besides, the values for the TGI in test [1], in test [2] and in test [4] were 2.89 µM, 3.59 µM and 2.98 µM, respectively.

For the molecule `COc1cc2c3c(n(CCCN(C)C)c(=O)c2cc1OC)-c1ccccc1C3=O`, the GI50 was 5.05 µM in test [1], 99.7 µM in test [2], 21.4 µM in test [3] and 3.17 µM in test [4]. Further, the TGI in test [1] was 24.7 µM; in test [2], over 100 µM; in test [3], over 100 µM; in test [4] it was 18.6 µM.

As to `COc1ccc(-c2c[nH]c(=S)n2-c2ccc(OC)cc2)cc1`, the GI50 in test [1], in test [2] and in test [3] was over 50 µM throughout. Besides, the TGI in test [1], in test [2] and in test [3] was over 50 µM throughout.

`COc1cc2c(cc1O)C1Cc3ccc(OC)c(O)c3C(C2)N1C` (configuration not stated): the TGI in test [1], in test [2], in test [3] and in test [4] was over 100 µM throughout.

Regarding `Cc1cn2c(/C=C3\C(=O)N(C)c4ccc(O)cc43)c(C)nc2s1`, the GI50 is 21 µM in test [1], 5.64 µM in test [2], 7.57 µM in test [3] and 7.37 µM in test [4]. The TGI in test [1] is over 100 µM; in test [2], 40.8 µM; in test [3], over 100 µM; in test [4], 36 µM.

The values are drawn from PubChem BioAssay (NCI).
